# According to US6387905B2, “Compounds useful for inhibition of farnesyl protein transferase” (Schering Corporation, priority 1996, dated 2002):
# Like-named read-outs stand apart in the source and are kept apart here.
# Experiments:
# [1] = molecular target: farnesyl protein transferase (FPT), H-ras (Homo sapiens, UniProt P49354+P49356); assay: FPT IC50 (H-ras), inhibition of farnesyl protein transferase, in vitro enzyme assay; assay type: biochemical
# Method: (§1) FPT IC50 (inhibition of farnesyl protein transferase, in vitro enzyme assay) and COS Cell IC50 (Cell-Based Assay) were determined following the assay procedures described in WO 95/10516, published Apr. 20, 1995. GGPT IC50 (inhibition of geranylgeranyl protein transferase, in vitro enzyme assay), Cell Mat Assay, and anti-tumor activity (in vivo anti-tumor studies) could be determined by the assay procedures described in WO 95/10516. The disclosure of WO 95/10516 is incorporated herein by reference thereto.
# [2] = tested on: Human tumor cells; assay: Soft Agar Assay (anchorage-independent growth); assay type: cell-based
# Method: Anchorage-independent growth is a characteristic of tumorgenic cell lines. Human tumor cells are suspended in growth medium containing 0.3% agarose and an indicated concentration of a farnesyl transferase inhibitor. The solution is overlayed onto growth medium solidified with 0.6% agarose containing the same concentration of farnesyl transferase inhibitor as the top layer. After the top layer is solidified, plates are incubated for 10-16 days at 37° C. under 5% CO2 to allow colony outgrowth. After incubation, the colonies are stained by overlaying the agar with a solution of MTT (3-[4,5-dimethyl-thiazol-2-yl]-2,5-diphenyltetrazolium bromide, Thiazolyl blue) (1 mg/mL in PBS). Colonies can be counted and the IC50's can be determined.
# [3] = tested on: COS Cell; assay: COS Cell IC50 (Cell-Based Assay)
# Method: as §1
# [4] = Homo sapiens, Table 5, read-out: Soft Agar IC50
# [5] = COS, Table 5, read-out: Cos Cell IC50
# [6] = H-ras, read-out: FPT IC50 (H-ras)
# [7] = COS, read-out: Cos Cell IC50, Table 5
# [8] = Table 3, H-ras, read-out: FPT IC50 (nM) (H-ras)
SMILES,"IC50 ([1]; Table 4, read-out: FPT IC50) [nM]","IC50 [2, 4] [nM]","IC50 [3, 5] [nM]",also measured
O=C(NO)C(=O)N1CCC(CC(=O)N2CCC([C@H]3c4ncc(Br)cc4CCc4cc(Cl)cc(Br)c43)CC2)CC1 [Cmpd 58.0-B],16,,,
NC(=O)CCC(=O)N1CCC(CC(=O)N2CCC([C@H]3c4ncc(Br)cc4CCc4cc(Cl)cc(Br)c43)CC2)CC1 [Cmpd 69.0-B],2.5,190,25,
O=C(CC1CCN(C(=O)Cn2cnc(-c3ccccc3)c2)CC1)N1CCC([C@H]2c3ncc(Br)cc3CCc3cc(Cl)cc(Br)c32)CC1 [Cmpd 20.0-B],5.6,,,
CC(C)=NOCCC(=O)N1CCC(CC(=O)N2CCC([C@H]3c4ncc(Br)cc4CCc4cc(Cl)cc(Br)c43)CC2)CC1 [Example 23.0-B],,,,"IC50 [1, 6]: 2.8 nM"
Cc1nccn1CC(=O)N1CCC(CC(=O)N2CCC([C@H]3c4ncc(Br)cc4CCc4cc(Cl)cc(Br)c43)CC2)CC1 [Cmpd 10.0-B],2.5,> 300,20,
O=C(CC1CCN(C(=O)C2CC(O)CN2)CC1)N1CCC([C@H]2c3ncc(Br)cc3CCc3cc(Cl)cc(Br)c32)CC1 (some centres unmarked) [Cmpd 63.0-B],3.5,500,55,
O=C(NOCc1ccccc1)C(=O)N1CCC(CC(=O)N2CCC([C@H]3c4ncc(Br)cc4CCc4cc(Cl)cc(Br)c43)CC2)CC1 [Cmpd 60.0-B],5.4,500,120,
COC(=O)c1cccn1CC(=O)N1CCC(CC(=O)N2CCC([C@H]3c4ncc(Br)cc4CCc4cc(Cl)cc(Br)c43)CC2)CC1 [Cmpd 35.0-B],6.4,300,30,"IC50 ([3]; Table 5, read-out: Cos Cell IC50): 50 nM"
CN(C)C(=O)C(=O)N1CCC(CC(=O)N2CCC([C@H]3c4ncc(Br)cc4CCc4cc(Cl)cc(Br)c43)CC2)CC1 [Cmpd 33.0-B],2.1,> 120,10,
O=C1NC(=O)C(CC(=O)N2CCC(CC(=O)N3CCC([C@H]4c5ncc(Br)cc5CCc5cc(Cl)cc(Br)c54)CC3)CC2)N1 (some centres unmarked) [Cmpd 77.0-B],3.2,240,14,"IC50 ([2]; Table 5, read-out: Soft Agar IC50): 214 nM"
O=C(CC1CCN(C(=O)CN2CCS(=O)(=O)CC2)CC1)N1CCC([C@H]2c3ncc(Br)cc3CCc3cc(Cl)cc(Br)c32)CC1 [Cmpd 6.0-B],2.7,210,30,
CCOC(CC(=O)N1CCC(CC(=O)N2CCC([C@H]3c4ncc(Br)cc4CCc4cc(Cl)cc(Br)c43)CC2)CC1)OCC [Cmpd 76.0-B],6.7,,,
O=C(O)CCC(=O)N1CCC(CC(=O)N2CCC([C@H]3c4ncc(Br)cc4CCc4cc(Cl)cc(Br)c43)CC2)CC1 [Example 78],1.2,,,"IC50 ([2]; Homo sapiens, read-out: Soft Agar IC50, Table 5): > 500 nM; IC50 [3, 7]: 75 nM"
NS(=O)(=O)NCC(=O)N1CCC(CC(=O)N2CCC([C@H]3c4ncc(Br)cc4CCc4cc(Cl)cc(Br)c43)CC2)CC1 [Cmpd 39.0-B],4.1,220,16,
O=C(CC1CCN(C(=O)CN2CCCCC2)CC1)N1CCC([C@H]2c3ncc(Br)cc3CCc3cc(Cl)cc(Br)c32)CC1 [Cmpd 75.0-B],4.7,150,10,
O=C(O)CCCC(=O)N1CCC(CC(=O)N2CCC([C@H]3c4ncc(Br)cc4CCc4cc(Cl)cc(Br)c43)CC2)CC1 [Example 19.0-B],1.1,,,"IC50 [3, 7]: 17.5 nM; IC50 ([3]; read-out: Cos Cell IC50, Table 5): < 10 nM"
O=C(O)c1cccn1CC(=O)N1CCC(CC(=O)N2CCC([C@H]3c4ncc(Br)cc4CCc4cc(Cl)cc(Br)c43)CC2)CC1 [Cmpd 52.0-B],1.3,500,400,
CC(C)=NOCCC(=O)N1CCC(CC(=O)N2CCC([C@H]3c4ncc(Br)cc4CCc4cc(Cl)cc(Br)c43)CC2)CC1 [Cmpd 23.0-B],2.8,> 500,< 10,

SMILES,"IC50 ([1]; Table 4, read-out: FPT IC50) [nM]","IC50 [2, 4] [nM]","IC50 [3, 5] [nM]",also measured
NCCC(=O)N1CCC(CC(=O)N2CCC([C@H]3c4ncc(Br)cc4CCc4cc(Cl)cc(Br)c43)CC2)CC1 [Cmpd 88.0-B],2.2,> 500,23,
NC(=O)CCCCC(=O)N1CCC(CC(=O)N2CCC([C@H]3c4ncc(Br)cc4CCc4cc(Cl)cc(Br)c43)CC2)CC1 [Example 108.0-B],,,,"IC50 [1, 6]: 3.5 nM"
CC(C)=NOCC(=O)N1CCC(CC(=O)N2CCC([C@H]3c4ncc(Br)cc4CCc4cc(Cl)cc(Br)c43)CC2)CC1 [Cmpd 9.0-B],5.8,> 500,25,
O=C(OCc1ccccc1)c1cccn1CC(=O)N1CCC(CC(=O)N2CCC([C@H]3c4ncc(Br)cc4CCc4cc(Cl)cc(Br)c43)CC2)CC1 [Cmpd 55.0-B],9.2,> 500,200,
O=C(CC1CCN(C(=O)CC2CCCCO2)CC1)N1CCC([C@H]2c3ncc(Br)cc3CCc3cc(Cl)cc(Br)c32)CC1 (some centres unmarked) [Cmpd 114.3-B],7.2,432,11,
O=C(CC1CCOCC1)N1CCC(CC(=O)N2CCC([C@H]3c4ncc(Br)cc4CCc4cc(Cl)cc(Br)c43)CC2)CC1 [Cmpd 85.0-B],5,333,14,
O=C(CCN1CCCCC1)N1CCC(CC(=O)N2CCC([C@H]3c4ncc(Br)cc4CCc4cc(Cl)cc(Br)c43)CC2)CC1 [Cmpd 7.0-B],< 2.6,,43,
COC(NC(=O)CC(=O)N1CCC(CC(=O)N2CCC([C@H]3c4ncc(Br)cc4CCc4cc(Cl)cc(Br)c43)CC2)CC1)C(C)C (some centres unmarked) [Cmpd 51.0-B],8.1,,280,
O=C(CO)N1CCC(CC(=O)N2CCC([C@H]3c4ncc(Br)cc4CCc4cc(Cl)cc(Br)c43)CC2)CC1 [Cmpd 37.0-B],2.6,75,,
CC(C)(C)OC(=O)NCCC(=O)N1CCC(CC(=O)N2CCC([C@H]3c4ncc(Br)cc4CCc4cc(Cl)cc(Br)c43)CC2)CC1 [Example 86.0-B],18,,,
NCCCC(=O)N1CCC(CC(=O)N2CCC([C@H]3c4ncc(Br)cc4CCc4cc(Cl)cc(Br)c43)CC2)CC1 [Cmpd 90.0-B],3.8,,,
CCOC(=O)c1c(C)ncn1CC(=O)N1CCC(CC(=O)N2CCC([C@H]3c4ncc(Br)cc4CCc4cc(Cl)cc(Br)c43)CC2)CC1 [Cmpd 53.0-B],3.6,,50,
CC(C)(C)OC(=O)N[C@@H](Cc1ccccc1)C(=O)N1CCC(CC(=O)N2CCC([C@H]3c4ncc(Br)cc4CCc4cc(Cl)cc(Br)c43)CC2)CC1 [Example 7],,,,"IC50 [1, 8]: 31.7 nM"
O=C(CC1CCN(C(=O)CN2C(=O)CSC2=O)CC1)N1CCC([C@H]2c3ncc(Br)cc3CCc3cc(Cl)cc(Br)c32)CC1 [Example 79.0-B],,,,"IC50 [1, 6]: 4.4 nM"
CCOC(=O)c1c(C)ncn1CC(=O)N1CCC(CC(=O)N2CCC([C@H]3c4ncc(Br)cc4CCc4cc(Cl)cc(Br)c43)CC2)CC1 [Cmpd 21.0-B],5.7,> 500,,
NC(=O)CCCCC(=O)N1CCC(CC(=O)N2CCC([C@H]3c4ncc(Br)cc4CCc4cc(Cl)cc(Br)c43)CC2)CC1 [Cmpd 67.0-B],3.5,,,
CNC(=O)C(=O)N1CCC(CC(=O)N2CCC([C@H]3c4ncc(Br)cc4CCc4cc(Cl)cc(Br)c43)CC2)CC1 [Cmpd 64.0-B],,130,10,
"O=C(CC1CCN(C(=O)CN2CCS(=O)(=O)CC2)CC1)N1CCC(C2c3ncc(Br)cc3CCc3cc(Cl)cc(Br)c32)CC1 (single isomer, unassigned; (+)) [Example 23]",,,,"IC50 ([3]; COS, Table 3, read-out: COS Cell IC50): 14 nM; IC50 [1, 8]: 2.7 nM"
